In ChEMBL document CHEMBL3045445, “Structural features of GABAA receptor antagonists: pharmacophore modeling and 3D-QSAR studies” (Med Chem Res, 2013):

Test: Displacement of [3H]muscimol from GABAA receptor in Sprague-Dawley rat brain membrane`after 60 mins by TopCount microplate scintillation counting analysis

Which Ki does the source give for `CC1(c2cc(O)no2)CCNCC1` here?
Its Ki is 37000 nM.

What about the pKi of the same compound?
The pKi was 4.43.

For `Oc1noc(C2CCNCC2)c1Cc1cccc2ccccc12`, which Ki is on record?
The Ki was 100 nM.

And the pKi?
The pKi was 7.

Which Ki does the source give for `Oc1noc(C2CCNCC2)c1CCCC(c1ccccc1)c1ccccc1` here?
Its Ki is 700 nM.

And the pKi?
Its pKi is 6.16.

Which Ki does the source give for `Oc1noc(C2CCNCC2)c1C(c1ccccc1)c1ccccc1` here?
Its Ki is 960 nM.

And the pKi?
Its pKi is 6.02.

For `Oc1noc(C2CCNCC2)c1CCc1ccc2ccccc2c1`, which Ki is on record?
Its Ki is 490 nM.

And the pKi?
The pKi was 6.31.

With `Oc1noc(C2CCNCC2)c1Cc1ccc2ccccc2c1Cl` as the compound, how does the Ki read?
Its Ki is 16 nM.

What about the pKi of the same compound?
Its pKi is 7.8.

Which Ki does the source give for `Oc1noc(C2CCNCC2)c1Cc1ccc2ccc(Br)cc2c1` here?
The Ki was 109 nM.

What about the pKi of the same compound?
Its pKi is 6.96.

Which Ki does the source give for `CSc1c(Cc2c(O)noc2C2CCNCC2)ccc2ccccc12` here?
Its Ki is 28 nM.

What about the pKi of the same compound?
Its pKi is 7.55.

For `Oc1noc(C2CCNCC2)c1Cc1ccc2ccccc2c1-c1ccccc1`, which Ki is on record?
Its Ki is 21 nM.

And the pKi?
Its pKi is 7.68.

Which Ki does the source give for `On1nc(Cc2cccc3ccccc23)c(C2CCNCC2)c1-c1ccccc1` here?
Its Ki is 22 nM.

And the pKi?
Its pKi is 7.66.

What does the source list for `On1nc(-c2ccccc2)c(C2CCNCC2)c1Cc1cccc2ccccc12`?
Ki: 1500 nM; pKi: 5.82

With `Oc1noc(C2CCNCC2)c1Cc1ccc2c(Br)cccc2c1` as the compound, how does the Ki read?
Its Ki is 80 nM.

And the pKi?
Its pKi is 7.1.

Which Ki does the source give for `Oc1noc(C2CCNCC2)c1Cc1ccc2cccc(Br)c2c1` here?
Its Ki is 45 nM.

What about the pKi of the same compound?
Its pKi is 7.35.

Which Ki does the source give for `Oc1noc(C2CCNCC2)c1-c1cccc2ccccc12` here?
Its Ki is 820 nM.

And the pKi?
The pKi was 6.09.

What does the source list for `N#Cc1c(Cc2c(O)noc2C2CCNCC2)ccc2ccccc12`?
Ki: 28 nM; pKi: 7.55

For `Oc1noc(C2CCNCC2)c1Cc1ccc2ccccc2c1F`, which Ki is on record?
The Ki was 19 nM.

And the pKi?
Its pKi is 7.72.

With `Oc1noc(C2CCNCC2)c1-c1ccc2ccccc2c1` as the compound, how does the Ki read?
The Ki was 36 nM.

What about the pKi of the same compound?
The pKi was 7.44.
